Reference: ChEMBL document CHEMBL5620401, “Design, synthesis, and biological evaluation of novel spirocyclic compounds as potential anti-glioblastoma agents” (Eur J Med Chem, 2023)
Activity calls are given as the source filed them. The rule behind the calls is not given here.

Tests used:
[1] = Toxicity in BALB/c mouse xenografted with human U-251 cells assessed as body weight change at 60 mg/kg, ip treated for 5 weeks; format: organism-based; details: in vivo, 840 h
[2] = Toxicity in BALB/c mouse xenografted with human U-251 cells assessed as pathological changes in spleen at 60 mg/kg, ip treated for 5 weeks by hematoxylin and eosin staining based assay; format: organism-based; details: in vivo, 840 h
[3] = Toxicity in BALB/c mouse xenografted with human U-251 cells assessed as toxicity at 60 mg/kg, ip treated for 5 weeks; format: organism-based; details: in vivo, 840 h
U-251 [4] = test: Effect on ZBP1 protein expression in human U-251 cells at 1 to 5 uM measured after 48 hrs by Western blot analysis; format: functional, cell-based; details: dose 1-5 µM
U-251 [5] = test: Induction of apoptosis in human U-251 cells assessed as late apoptotic cells at 1 uM measured after 48 hrs by Annexin V/PI analysis (reference value: 0.7%); format: functional
[6] = Toxicity in BALB/c mouse xenografted with human U-251 cells assessed as pathological changes in lung at 60 mg/kg, ip treated for 5 weeks by hematoxylin and eosin staining based assay; format: organism-based; details: in vivo, 840 h
U-251 [7] = test: Induction of apoptosis in human U-251 cells assessed as viable cells at 5 uM measured after 48 hrs by Annexin V/PI analysis (reference value: 96.2%); format: functional; details: read-out: Activity
[8] = Permeability coefficient of compound by lipid-PAMPA assay; format: ADME; details: read-out: Peff
U-251 [9] = test: Induction of apoptosis in human U-251 cells assessed as increase in caspase-3 expression measured after 48 hrs by Western blot analysis; format: functional, cell-based; details: dose 1-5 µM
U-251 [10] = test: Effect on RIPK3 protein expression in human U-251 cells at 1 to 5 uM measured after 48 hrs by Western blot analysis; format: functional, cell-based; details: dose 1-5 µM
U-251 [11] = test: Induction of apoptosis in human U-251 cells assessed as viable cells at 1 uM measured after 48 hrs by Annexin V/PI analysis (reference value: 96.2%); format: functional; details: read-out: Activity
[12] = Toxicity in BALB/c mouse xenografted with human U-251 cells assessed as pathological changes in liver at 60 mg/kg, ip treated for 5 weeks by hematoxylin and eosin staining based assay; format: organism-based; details: in vivo, 840 h
U-251 [13] = test: Antiproliferative activity against human U-251 cells assessed as cell viability measured after 72 hrs by MTT assay; format: functional, cell-based; details: U-251, 72 h
[14] = Toxicity in BALB/c mouse xenografted with human U-251 cells assessed as pathological changes in kidney at 60 mg/kg, ip treated for 5 weeks by hematoxylin and eosin staining based assay; format: organism-based; details: in vivo, 840 h
U-251 [15] = test: Increase in caspase 3 expression human U-251 cells measured at 1 to 5 uM after 48 hrs by Western blot analysis; format: functional, cell-based; details: dose 1-5 µM
U-251 [16] = test: Induction of apoptosis in human U-251 cells assessed as early apoptotic cells at 1 uM measured after 48 hrs by Annexin V/PI analysis (reference value: 3.1%); format: functional
U-251 [17] = test: Anti-GBM effect in human U-251 cells xenografted in BALB/c mouse model assessed as reduction in number of Ki67-positive cells in the tumor at 60 mg/kg, ip treated for 5 weeks by immunohistochemical staining analysis; format: functional, organism-based
U-251 [18] = test: Induction of apoptosis in human U-251 cells assessed as early apoptotic cells at 5 uM measured after 48 hrs by Annexin V/PI analysis (reference value: 3.1%); format: functional
U-251 [19] = test: Decrease in SIRT1 protein expression in human U-251 cells at 1 to 5 uM by Western blot analysis; format: functional, cell-based; details: dose 1-5 µM
U-251 [20] = test: Increase in acetylated p53 level in human U-251 cells at 1 to 5 uM by Western blot analysis; format: functional, cell-based; details: dose 1-5 µM
U-251 [21] = test: Induction of apoptosis in human U-251 cells assessed as increase in BCL2 homologous antagonist/killer (Bak) expression measured after 48 hrs by Western blot analysis; format: functional, cell-based; details: dose 1-5 µM
U-251 [22] = test: Induction of apoptosis in human U-251 cells assessed as late apoptotic cells at 5 uM measured after 48 hrs by Annexin V/PI analysis (reference value: 0.7%); format: functional
U-251 [23] = test: Induction of apoptosis in human U-251 cells assessed as necrotic cells at 5 uM measured after 48 hrs by Annexin V/PI analysis (reference value: 0%); format: functional
U-251 [24] = test: Decrease in SIRT1 gene expression in human U-251 cells at 5 uM measured after 48 hrs incubation by RT-qPCR analysis; format: functional, cell-based
U-251 [25] = test: Induction of apoptosis in human U-251 cells assessed as necrotic cells at 1 uM measured after 48 hrs by Annexin V/PI analysis (reference value: 0%); format: functional
U-251 [26] = test: Effect on GSDMD protein expression in human U-251 cells at 1 to 5 uM measured after 48 hrs by Western blot analysis; format: functional, cell-based; details: dose 1-5 µM
U-251 [27] = test: Effect on phosphorylated-[…] protein expression in human U-251 cells at 1 to 5 uM measured after 48 hrs by Western blot analysis; format: functional, cell-based; details: dose 1-5 µM
U-251 [28] = test: Induction of apoptosis in human U-251 cells assessed as early apoptotic cells at 2.5 uM measured after 48 hrs by Annexin V/PI analysis (reference value: 3.1%); format: functional
U-251 [29] = test: Increase in BCL2 homologous antagonist/killer (Bak) expression human U-251 cells measured at 1 to 5 uM after 48 hrs by Western blot analysis; format: functional, cell-based; details: dose 1-5 µM
U-251 [30] = test: Induction of apoptosis in human U-251 cells assessed as necrotic cells at 2.5 uM measured after 48 hrs by Annexin V/PI analysis (reference value: 0%); format: functional
U-251 [31] = test: Anti-GBM effect in human U-251 cells xenografted in BALB/c mouse model assessed as inhibition of tumor growth at 60 mg/kg, ip treated for 5 weeks; format: functional, organism-based
U-251 [32] = test: Effect on caspase 8 protein expression in human U-251 cells at 1 to 5 uM measured after 48 hrs by Western blot analysis; format: functional, cell-based; details: dose 1-5 µM
[33] = Toxicity in BALB/c mouse xenografted with human U-251 cells assessed as pathological changes in heart at 60 mg/kg, ip treated for 5 weeks by hematoxylin and eosin staining based assay; format: organism-based; details: in vivo, 840 h
U-251 [34] = test: Increase in acetylated p53 level in SIRT1 overexpressed human U-251 cells at 1 to 5 uM by Western blot analysis; format: functional, cell-based; details: dose 1-5 µM
U-251 [35] = test: Inhibition of colony formation in human U-251 cells; format: functional, cell-based
U-251 [36] = test: Effect on RIPK1 protein expression in human U-251 cells at 1 to 5 uM measured after 48 hrs by Western blot analysis; format: functional, cell-based; details: dose 1-5 µM
U-251 [37] = test: Induction of apoptosis in human U-251 cells assessed as increase in p53 expression measured after 48 hrs by Western blot analysis; format: functional, cell-based; details: dose 1-5 µM
U-251 [38] = test: Induction of apoptosis in human U-251 cells assessed as late apoptotic cells at 2.5 uM measured after 48 hrs by Annexin V/PI analysis (reference value: 0.7%); format: functional
U-87 MG = test: Antiproliferative activity against human U87 cells assessed as cell viability measured after 72 hrs by MTT assay; format: functional, cell-based, U-87MG ATCC
U-251 [39] = test: Induction of apoptosis in human U-251 cells assessed as viable cells at 2.5 uM measured after 48 hrs by Annexin V/PI analysis (reference value: 96.2%); format: functional; details: read-out: Activity

COc1cc(C(=O)/C=C/c2ccc(C(=O)N3CCN(Cc4ccccc4)C34COC4)cc2)cc(OC)c1OC
Activity [1]: Non-Toxic | Activity [2]: Non-Toxic | Activity [3]: Non-Toxic | Activity (U-251 [4]): inactive | Activity (U-251 [5]): 8.2% | Activity [6]: Non-Toxic | viability at 5 µM (U-251 [7]): 14.7% | Papp [8]: 131 nm/s | Activity (U-251 [9]): Dose-Dependent Effect | Activity (U-251 [10]): inactive | viability at 1 µM (U-251 [11]): 79.8% | Activity [12]: Non-Toxic | IC50 (U-251 [13]): 0.9 µM | Activity [14]: Non-Toxic | Activity (U-251 [15]): inactive | Activity (U-251 [16]): 11.8% | Activity (U-251 [17]): Active | Activity (U-251 [18]): 17.7% | Activity (U-251 [19]): Active | Activity (U-251 [20]): Active | Activity (U-251 [21]): Dose-Dependent Effect | Activity (U-251 [22]): 67.5% | Activity (U-251 [23]): 0.1% | Activity (U-251 [24]): Active | Activity (U-251 [25]): 0.2% | Activity (U-251 [26]): inactive | Activity (U-251 [27]): inactive | Activity (U-251 [28]): 16.4% | Activity (U-251 [29]): inactive | Activity (U-251 [30]): 0.2% | Activity (U-251 [31]): Active | Activity (U-251 [32]): inactive | Activity [33]: Non-Toxic | Activity (U-251 [34]): inactive | inhibition (U-251 [35]): Dose-Dependent Effect | Activity (U-251 [36]): inactive | Activity (U-251 [37]): Dose-Dependent Effect | Activity (U-251 [38]): 9.2% | IC50 (U-87 MG): 2.1 µM | viability at 2.5 µM (U-251 [39]): 74.2%
